{"source": "patent US20050080054A1", "about": "“Treating androgen decline in aging male (ADAM)-associated conditions with SARMS” (priority 2002, published 2005)", "key": {"[1]": {"experiment": "Plasma FSH levels in male rats of varying hormonal status", "assay_type": "in vivo, rat", "conditions": "0.5 mg/day; for Plasma FSH levels: 14 days, n = 5", "source_text": "Compound VI and Compound VII were synthesized and characterized in the laboratory of Dr. Duane Miller at the University of Tennessee, Memphis, Tenn. Male Sprague-Dawley rats were purchased from Harlan Biosciences (Indianapolis, Ind.). The animals were maintained on a 12-h cycle of light and dark with food and water available ad libitum. All animal studies were reviewed and approved by the Animal Care and Use Committee of The Ohio State University, and conformed to the Principles of Laboratory Animal Care (NIH publication #85-23, revised 1985). Immature male Sprague-Dawley rats weighing 187 to 214 g were randomly distributed into 9 groups of 5 animals. One day before the initiation of drug treatment, groups 4 through 6 and groups 7 through 9 received unilateral or bilateral orchidectomy, respectively, via a midline scrotal incision. […] All drugs given to animals were freshly prepared as solutions in polyethylene glycol 300 (PEG 300). Groups 4 and 7 received treatment with vehicle alone (i.e., PEG 300). Animals in groups 3, 6, and 9 received testosterone propionate (TP, 0.5 mg/day) via implantation of subdermal osmotic pumps (Model 2002, Durect Corporation, Palo Alto, Calif.). Animals in groups 2, 5, and 8 received Compound VI or Compound VII (0.5 mg/day) via implantation of subdermal osmotic pumps. After 14 days of drug treatment, rats were weighed, anesthetized, and sacrificed. Blood samples were collected by venipuncture of the abdominal aorta. Plasma samples were analyzed for testosterone, FSH, LH and osteocalcin. Testosterone concentrations were measured by AniLytics Inc. (Gaithersburg, Md.). FSH and LH levels were measured by the National Hormone and Peptide Program (Dr. A F Parlow, UCLA, CA). Plasma osteocalcin levels were determined using a commercially available rat osteocalcin EIA kit from Biomedical Technologies Inc. (Stoughton, Mass.). The ventral prostates, seminal vesicles, and levator ani muscle were removed and weighed. Osmotic pumps were also removed from animals to check for correct pump operation. The weights of all organs were normalized to body weight, and analyzed for any statistically significant differences between groups using single-factor ANOVA with the alpha value set a priori at p<0.05. The weights of prostates and seminal vesicles were used as indices for evaluation of androgenic activity, and the levator ani muscle weight was used to evaluate the anabolic activity. Statistical analyses of parameters from complete blood count or serum chemical profiling, wherever applicable, were performed by single-factor ANOVA with the alpha value set a priori at p<0.05."}, "[2]": {"system": "female rats after ovariectomy", "experiment": "Bone mineral content (DEXA) in female rats after ovariectomy", "assay_type": "in vivo, rat", "description": "One hundred ten female rats were assigned to one of eleven treatment groups. Groups 1-8 were ovariectomized on day one of the study. Groups 9-11 were intact animals. Groups 1-6 received Compound VI by daily subcutaneous injection at doses of 0.1, 0.3, 0.5, 0.75, 1.0, and 3 mg/day, respectively. Groups 7 and 11 received dihydrotestosterone (DHT) at a dose of 1 mg/day. Groups 8 and 9 were ovariectomized and intact control groups, respectively. Group 10 received Compound VI at a dose of 1.0 mg/day. All animals were treated for 120 days. Bone mineral content (BMC) was determined using dual energy x-ray absorptiometry (DEXA) on days 1, 30, 60, 90, and 120."}}, "data": [{"compound": "CC(=O)Nc1ccc(OC[C@](C)(O)C(=O)Nc2ccc([N+](=O)[O-])c(C(F)(F)F)c2)cc1", "note": "[Compound VI]", "values": [{"measurement": "effect on plasma FSH levels", "setting": "[1]; TP statement for castrated male rats", "value": "no effect"}, {"measurement": "Plasma FSH levels", "setting": "[1]; castrated male rats", "value": "69.6 ± 11.7", "unit": "ng/mL"}, {"measurement": "Plasma FSH levels", "setting": "[1]; hemi-orchidectomized male rats", "value": "15.2 ± 2.2", "unit": "ng/mL"}, {"measurement": "Plasma FSH levels", "setting": "[1]; intact male rats", "value": "14.4 ± 1.7", "unit": "ng/mL"}, {"measurement": "whole body BMC", "setting": "[2]; FIG. 9", "value": "increased whole body BMC in a dose-dependent and time-dependent manner"}, {"measurement": "effect at L2-L4 vertebra and proximal femur", "setting": "[2]; FIG. 10", "value": "protective effect"}, {"measurement": "potency comparison Compound VI versus DHT", "setting": "[2]; ovariectomized female rat bone model", "value": "more potent than DHT"}, {"measurement": "bone resorption", "setting": "[2]; ovariectomized female rats, 120 days", "value": "inhibited bone resorption"}, {"measurement": "increase in BMC", "setting": "[2]; ovariectomized female rats, 0.1 mg/day s.c. daily, treated for 120 days (group 1)", "value": 22.9, "unit": "%"}, {"measurement": "increase in BMC", "setting": "[2]; ovariectomized female rats, 0.3 mg/day s.c. daily, treated for 120 days (group 2)", "value": 26.0, "unit": "%"}, {"measurement": "increase in BMC", "setting": "[2]; ovariectomized female rats, 0.5 mg/day s.c. daily, treated for 120 days (group 3)", "value": 28.5, "unit": "%"}, {"measurement": "increase in BMC", "setting": "[2]; ovariectomized female rats, 0.75 mg/day s.c. daily, treated for 120 days (group 4)", "value": 30.5, "unit": "%"}, {"measurement": "increase in BMC", "setting": "[2]; ovariectomized female rats, 1.0 mg/day, treated for 120 days (group 5; DHT 1 mg/day)", "value": 30.0, "unit": "%"}, {"measurement": "increase in BMC", "setting": "[2]; ovariectomized female rats, 3 mg/day s.c. daily, treated for 120 days (group 6)", "value": 40.1, "unit": "%"}]}]}
